Data: ChEMBL document CHEMBL1144507, “Synthesis and antifungal activity of (Z)-5-arylidenerhodanines” (2007)
≈ marks a conversion by molar mass, not a printed value. Blank lines part the entries; values can stand above or below the compound they belong to.

Key:
Nannizzia gypsea = assay: Antifungal activity against Microsporum gypseum C115 after 48 hrs; format: functional
Trichophyton rubrum = assay: Antifungal activity against Trichophyton rubrum C113 after 48 hrs; format: functional
Candida albicans [1] = assay: Antifungal activity against Candida albicans ATCC 10231 after 48 hrs; format: functional; details: ATCC 10231, 48 h
Aspergillus flavus = assay: Antifungal activity against Aspergillus flavus ATCC 9170 after 48 hrs; format: functional; details: ATCC 9170, 48 h
Aspergillus niger = assay: Antifungal activity against Aspergillus niger ATCC 9029 after 48 hrs; format: functional; details: ATCC 9029, 48 h
Cryptococcus neoformans [2] = assay: Antifungal activity against Cryptococcus neoformans ATCC 32264 after 48 hrs; format: functional; details: ATCC 32264, 48 h
Saccharomyces cerevisiae = assay: Antifungal activity against Saccharomyces cerevisiae ATCC 9763 after 48 hrs; format: functional; details: ATCC 9763, 48 h
Aspergillus fumigatus = assay: Antifungal activity against Aspergillus fumigatus ATCC 26934 after 48 hrs; format: functional; details: ATCC 26934, 48 h
Trichophyton benhamiae = assay: Antifungal activity against Trichophyton mentagrophytes ATCC 9972 after 48 hrs; format: functional, Arthroderma benhamiae; details: ATCC 9972, 48 h
Cryptococcus neoformans [3] = assay: Antifungal activity against […] IM 961951 after 48 hrs; format: functional
Cryptococcus neoformans [4] = assay: Antifungal activity against […] IM 031706 after 48 hrs; format: functional
Cryptococcus neoformans [5] = assay: Antifungal activity against […] IM 052470 after 48 hrs; format: functional
Cryptococcus neoformans [6] = assay: Antifungal activity against […] IM 972724 after 48 hrs; format: functional
Cryptococcus neoformans [7] = assay: Antifungal activity against […] IM 972751 after 48 hrs; format: functional
Cryptococcus neoformans [8] = assay: Antifungal activity against […] IM 042074 after 48 hrs; format: functional
Cryptococcus neoformans [9] = assay: Antifungal activity against […] IM 031631 after 48 hrs; format: functional
Cryptococcus neoformans [10] = assay: Antifungal activity against […] IM 983036 after 48 hrs; format: functional
Cryptococcus neoformans [11] = assay: Antifungal activity against Candida neoformans IM 983040 after 48 hrs; format: functional
Cryptococcus neoformans [12] = assay: Antifungal activity against […] IM 00319 after 48 hrs; format: functional
Cryptococcus neoformans [13] = assay: Antifungal activity against […] ATCC 32264 after 48 hrs; format: functional; details: ATCC 32264, 48 h
Pichia kudriavzevii = assay: Antifungal activity against Candida krusei C117-2000 after 48 hrs; format: functional
Candida albicans [14] = assay: Antifungal activity against Candida albicans C126-2000 after 48 hrs; format: functional
Candida albicans [15] = assay: Antifungal activity against Candida albicans C130-2000 after 48 hrs; format: functional
Kluyveromyces marxianus = assay: Antifungal activity against Candida kefyr C123-2000 after 48 hrs; format: functional
Candida tropicalis = assay: Antifungal activity against Candida tropicalis C131-1997 after 48 hrs; format: functional
Torulaspora delbrueckii = assay: Antifungal activity against Candida coliculosa C122-2000 after 48 hrs; format: functional
Candida albicans [16] = assay: Antifungal activity against Candida albicans C128-2000 after 48 hrs; format: functional
Candida parapsilosis = assay: Antifungal activity against Candida parapsilosis C124-2000 after 48 hrs; format: functional; details: Lodderomyces parapsilosis
Candida albicans [17] = assay: Antifungal activity against Candida albicans C125-2000 after 48 hrs; format: functional
Candida albicans [18] = assay: Antifungal activity against Candida albicans C127-2000 after 48 hrs; format: functional
Nakaseomyces glabratus = assay: Antifungal activity against Candida glabrata C115-2000 after 48 hrs; format: functional
Clavispora lusitaniae = assay: Antifungal activity against Candida lusitaniae C131-2000 after 48 hrs; format: functional
[19] = Cryptococcus neoformans, 48 h, read-out: MFC

MIC (Nannizzia gypsea): > 250 µg/mL | MIC (Trichophyton rubrum): > 250 µg/mL | MIC (Candida albicans [1]): > 250 µg/mL | MIC (Aspergillus flavus): > 250 µg/mL | MIC (Aspergillus niger): > 250 µg/mL | MIC (Cryptococcus neoformans [2]): > 250 µg/mL | MIC (Saccharomyces cerevisiae): > 250 µg/mL | MIC (Aspergillus fumigatus): > 250 µg/mL | MIC (Trichophyton benhamiae): > 250 µg/mL
SMILES: O=C1NC(=S)S/C1=C\c1ccc2c(c1)OCO2

MIC (Nannizzia gypsea): > 250 µg/mL | MIC (Trichophyton rubrum): > 250 µg/mL | MIC (Candida albicans [1]): > 250 µg/mL | MIC (Aspergillus flavus): > 250 µg/mL | MIC (Aspergillus niger): > 250 µg/mL | MIC (Cryptococcus neoformans [2]): > 250 µg/mL | MIC (Saccharomyces cerevisiae): > 250 µg/mL | MIC (Aspergillus fumigatus): > 250 µg/mL | MIC (Trichophyton benhamiae): > 250 µg/mL
SMILES: COc1ccc(/C=C2\SC(=S)NC2=O)cc1

SMILES: Nc1nc(=O)[nH]cc1F [FLUCYTOSINE]
MFC (Cryptococcus neoformans [3]): 3.9 µg/mL (≈ 30.2 µM) | MFC (Cryptococcus neoformans [4]): 7.8 µg/mL (≈ 60.4 µM) | MFC (Cryptococcus neoformans [5]): 7.8 µg/mL (≈ 60.4 µM) | MFC (Cryptococcus neoformans [6]): 3.9 µg/mL (≈ 30.2 µM) | MFC (Cryptococcus neoformans [7]): 15.6 µg/mL (≈ 121 µM) | MFC (Cryptococcus neoformans [8]): 3.9 µg/mL (≈ 30.2 µM) | MFC (Cryptococcus neoformans [9]; [19]): 7.8 µg/mL (≈ 60.4 µM) | MFC (Cryptococcus neoformans [10]): 7.8 µg/mL (≈ 60.4 µM) | MFC (Cryptococcus neoformans [11]): 7.8 µg/mL (≈ 60.4 µM)

SMILES: CCC(C)n1ncn(-c2ccc(N3CCN(c4ccc(OCC5COC(Cn6cncn6)(c6ccc(Cl)cc6Cl)O5)cc4)CC3)cc2)c1=O (centres undefined) [ITRACONAZOLE]
MFC (Cryptococcus neoformans [12]): < 0.015 µg/mL | MFC (Cryptococcus neoformans [3]): < 0.015 µg/mL | MFC (Cryptococcus neoformans [4]): 0.5 µg/mL (≈ 0.709 µM) | MFC (Cryptococcus neoformans [5]): < 0.015 µg/mL | MFC (Cryptococcus neoformans [13]): 0.15 µg/mL (≈ 0.213 µM) | MFC (Cryptococcus neoformans [6]): 0.25 µg/mL (≈ 0.354 µM) | MFC (Cryptococcus neoformans [7]): < 0.015 µg/mL | MFC (Cryptococcus neoformans [8]): < 0.015 µg/mL | MFC (Cryptococcus neoformans [9]; [19]): 0.25 µg/mL (≈ 0.354 µM) | MFC (Cryptococcus neoformans [10]): < 0.015 µg/mL | MFC (Cryptococcus neoformans [11]): < 0.015 µg/mL

SMILES: CC(=O)N1CCN(c2ccc(OCC3COC(Cn4ccnc4)(c4ccc(Cl)cc4Cl)O3)cc2)CC1 (centres undefined) [KETOCONAZOLE]
MFC (Pichia kudriavzevii): 50 µg/mL (≈ 94.1 µM) | MFC (Candida albicans [14]): 1.56 µg/mL (≈ 2.94 µM) | MFC (Candida albicans [15]): 6.25 µg/mL (≈ 11.8 µM) | MFC (Kluyveromyces marxianus): 0.78 µg/mL (≈ 1.47 µM) | MFC (Candida tropicalis): 0.125 µg/mL (≈ 0.235 µM) | MFC (Cryptococcus neoformans [13]): 0.25 µg/mL (≈ 0.47 µM) | MFC (Torulaspora delbrueckii): 0.78 µg/mL (≈ 1.47 µM) | MFC (Candida albicans [16]): 6.25 µg/mL (≈ 11.8 µM) | MFC (Candida parapsilosis): 0.78 µg/mL (≈ 1.47 µM) | MFC (Candida albicans [17]): 6.25 µg/mL (≈ 11.8 µM) | MFC (Candida albicans [18]): 6.25 µg/mL (≈ 11.8 µM) | MFC (Nakaseomyces glabratus): 1.56 µg/mL (≈ 2.94 µM) | MFC (Clavispora lusitaniae): 25 µg/mL (≈ 47 µM)

SMILES: C[C@@H]1[C@H](O)[C@@H](C)/C=C/C=C/C=C/C=C/C=C/C=C/C=C/[C@H](O[C@@H]2O[C@H](C)[C@@H](O)[C@H](N)[C@@H]2O)C[C@@H]2O[C@](O)(C[C@@H](O)C[C@@H](O)[C@H](O)CC[C@@H](O)C[C@@H](O)CC(=O)O[C@H]1C)C[C@H](O)[C@H]2C(=O)O [AMPHOTERICIN B]
MFC (Pichia kudriavzevii): 0.39 µg/mL (≈ 0.422 µM) | MFC (Cryptococcus neoformans [12]): 0.25 µg/mL (≈ 0.271 µM) | MFC (Cryptococcus neoformans [3]): 0.06 µg/mL (≈ 0.0649 µM) | MFC (Cryptococcus neoformans [4]): 0.25 µg/mL (≈ 0.271 µM) | MFC (Cryptococcus neoformans [5]): 0.5 µg/mL (≈ 0.541 µM) | MFC (Candida albicans [14]): 1.56 µg/mL (≈ 1.69 µM) | MFC (Candida albicans [15]): 0.78 µg/mL (≈ 0.844 µM) | MFC (Kluyveromyces marxianus): 0.78 µg/mL (≈ 0.844 µM) | MFC (Candida tropicalis): 0.5 µg/mL (≈ 0.541 µM) | MFC (Cryptococcus neoformans [13]): 0.25 µg/mL (≈ 0.271 µM) | MFC (Cryptococcus neoformans [6]): 0.06 µg/mL (≈ 0.0649 µM) | MFC (Torulaspora delbrueckii): 0.36 µg/mL (≈ 0.39 µM) | MFC (Candida albicans [16]): 1.56 µg/mL (≈ 1.69 µM) | MFC (Candida parapsilosis): 0.78 µg/mL (≈ 0.844 µM) | MFC (Cryptococcus neoformans [7]): 0.25 µg/mL (≈ 0.271 µM) | MFC (Candida albicans [17]): 0.78 µg/mL (≈ 0.844 µM) | MFC (Cryptococcus neoformans [8]): 0.25 µg/mL (≈ 0.271 µM) | MFC (Candida albicans [18]): 0.78 µg/mL (≈ 0.844 µM) | MFC (Nakaseomyces glabratus): 0.39 µg/mL (≈ 0.422 µM) | MFC (Clavispora lusitaniae): 0.39 µg/mL (≈ 0.422 µM) | MFC (Cryptococcus neoformans [9]; [19]): 0.13 µg/mL (≈ 0.141 µM) | MFC (Cryptococcus neoformans [10]): 0.13 µg/mL (≈ 0.141 µM) | MFC (Cryptococcus neoformans [11]): 0.13 µg/mL (≈ 0.141 µM)

SMILES: C[C@@H](c1ncncc1F)[C@](O)(Cn1cncn1)c1ccc(F)cc1F [VORICONAZOLE]
MFC (Cryptococcus neoformans [12]): < 0.015 µg/mL | MFC (Cryptococcus neoformans [3]): 0.015 µg/mL (≈ 0.0429 µM) | MFC (Cryptococcus neoformans [4]): 0.5 µg/mL (≈ 1.43 µM) | MFC (Cryptococcus neoformans [5]): 0.03 µg/mL (≈ 0.0859 µM) | MFC (Cryptococcus neoformans [6]): < 0.015 µg/mL | MFC (Cryptococcus neoformans [7]): 0.03 µg/mL (≈ 0.0859 µM) | MFC (Cryptococcus neoformans [8]): < 0.015 µg/mL | MFC (Cryptococcus neoformans [9]): 0.25 | MFC (Cryptococcus neoformans [10]): < 0.015 µg/mL | MFC (Cryptococcus neoformans [11]): < 0.015 µg/mL
